Here are results for 4 molecules from patent US20070265164A1, “Active Substances for Increasing Pathogenic Defense in Plants and Methods for the Detection Thereof” (Bayer Cropscience GmbH, priority 2004, published 2007).

Common to all, as to format: in vivo
Design in all cases: fold induction: dose or concentration left out as unconfirmed
Holding throughout (settings): for fold induction: rates of Table 1 (S7 500)

Experiment [1] has as its system Contig2088_s_at, Bowman-Birk type trypsin inhibitor. Briefly: GEP, barley DNA chip, probe set 2.1. As for the experimental part:
(§1) Barley plants (cv. Baronesse) were grown in compost-filled pots (diameter: 10 cm) for 10 days in a controlled-environment cabinet under defined light, humidity and temperature conditions (white light, 70% atmospheric humidity, 24° C.). At the time of spray application, the seedlings were approximately 15 cm in size. The test substances selected in this example were molecules which differ markedly in their structure and which have a well documented pronounced safener effect, and other molecules which are known from the literature to have an effect on plant stress and pathogen tolerance (Table 1). The substances were prepared as stock solutions in DMSO (dimethyl sulfoxide) at c=10 mg/ml). This was used for preparing dilutions in water supplemented with 0.2% Agrotin (comprises polyvinyl alcohol, silicones, polysaccharides and pH regulators, manufacturer: Bayer CropScience AG, Monheim, Germany), as wetter, to give the application rates shown in the table. The amount of liquid for the spray application was 800 μl per pot, corresponding to 800 l/ha. For each 800 μl of spray mixture, 16 μl of EC premix: diacetone alcohol=1:6 were additionally added as formulation auxiliaries. The substances listed in Table 1 were applied to the leaves by means of a pneumatic spray pistol. Each substance was sprayed as 2 dosages, and all experiments were carried out as replicates (2 pots per substance). Sprayings with blank formulation without active ingredient were carried out as controls. After 6 hours, the leaves were harvested, frozen in liquid nitrogen and stored at −80° C. until further use. The labeled RNA probes for the DNA chip hybridization were prepared as described in the protocols (Expression Analysis, Technical Manual) from Affymetrix (Affymetrix Inc., 3380 Central Expressway, Santa Clara, Calif., USA). First, total RNA was isolated from in each case 500 mg of the harvested leaves. In each case 10 μg of total RNA was used for the first-strand and second-strand cDNA synthesis. The cDNA was amplified with T7 polymerase and simultaneously labeled with biotin-UTP. In each case, 20 μg of this biotinylated cDNA was employed for the hybridization of the barley genome array (Gene Chip Barleyl, order No.: 511012) from Affymetrix. This DNA microarray comprises DNA sequences of 22 840 genes which are composed of a total of 400 000 EST sequences. Thereafter, the DNA microarrays were washed in the Affymetrix Fluidics Station, stained with streptavidin/phycoerythrin (Molecular Probes, P/N S-866) and scanned with the matching Agilent Laser Scanner (Agilent Gene Array Scanner). The fluorescent data obtained were analyzed with the software Microarray Suite 5 from Affymetrix. After the quality had been checked, all DNA chip analyses were stored in a database. To determine the relative expression values for genes (induction factors, repression factors), test and control chips were compared with each other, and the scoring function set by the Affymetrix software was used as the basis. The 2 biological replications of one experiment were compared in each case with 2 control chips (blank formulation), and the 4 expression values obtained for each gene were used for calculating the median. These medians are shown in the results tables as induction factors. Similarity comparisons of expression profiles from different experiments and cluster analyses were carried out using the software GeneMaths 1.5 from Applied Maths (Applied Maths, Keistraat 120, 9830 Sint-Martens-Latem, Belgium).
(§2) Gene groups from specific metabolic pathways and signal transduction chains were put together by key word search in the annotations, of the genes, which were also provided by Affymetrix, and by Blast analyses (homology comparisons) of the DNA target sequences, i.e. of the positive sequence (identified on the basis of a modified expression profile) identified on the DNA chip, using gene sequences from other organisms, preferably plant organisms, with characterized functions. […]

Experiment [2] has as its system Contig2118_at, Peroxidase (EC 1.11.1.7), pathogen-induced. Briefly: GEP, barley DNA chip, probe set 4.1. The protocol:
as §1, §2

Experiment [3] deals with Contig6194_a_at, 12-oxophytodienoic acid reductase. In words: GEP, barley DNA chip, probe set 1.7. The protocol: as §1, §2
Experiment [4] concerns Contig2337_at, 12-oxophytodienoate reductase (OPR1). In words: GEP, barley DNA chip, probe set 1.20. As for the experimental part: as §1, §2
The subject of experiment [5] is Contig2305_at, Methyljasmonate inducible lipoxygenase. In words: GEP, barley DNA chip, probe set 1.14. As for the experimental part:
as §1, §2

The test system of experiment [6] is Contig15_a_at, GDSL-motif lipase/hydrolase-like protein. Briefly: GEP, barley DNA chip, probe set 1.9. The protocol: as §1, §2
In experiment [7] the test system is Contig2990_at, Chitinase (EC 3.2.1.14). Briefly: GEP, barley DNA chip, probe set 5.1. The protocol:
as §1, §2

The test system of experiment [8] is Contig88_x_at, Putative proteinase inhibitor. Briefly: GEP, barley DNA chip, probe set 2.3. The protocol: as §1, §2
The test system of experiment [9] is HI02E21u_s_at, Lipoxygenase (EC 1.13.11.12). Briefly: GEP, barley DNA chip, probe set 1.2. The protocol: as §1, §2
In experiment [10] the test system is Contig13413_at, Similar to lipases. Briefly: GEP, barley DNA chip, probe set 1.17. As for the experimental part: as §1, §2
Experiment [11] has as its system Contig8905_at, Xytanase inhibitor protein. In words: GEP, barley DNA chip, probe set 3.1. The protocol:
as §1, §2

Experiment [12] relates to Contig 4986_at, Allene oxide cyclase. Briefly: GEP, barley DNA chip, probe set 1.5. As for the experimental part: as §1, §2
Experiment [13] relates to Contig1736_at, Lipoxygenase 1 (EC 1.13.11.12). In words: GEP, barley DNA chip, probe set 1.10. The protocol: as §1, §2
Where [14] appears, read: barley leaves 6 h after spray application, rates of Table 1 (150 g a.i./ha, S7 500), median induction factor vs control.
The mark [15] stands for this setting: Hordeum vulgare, topical, barley leaves 6 h after spray application, median induction factor vs control, read-out: Expression value, 2.1 Contig2088_s_at.
Where [16] appears, read: Hordeum vulgare, topical, barley leaves 6 h after spray application, median induction factor vs control, read-out: Expression value, 4.1 Contig2118_at.
Where [17] appears, read: Hordeum vulgare, topical, barley leaves 6 h after spray application, median induction factor vs control, read-out: Expression value, 1.7 Contig6194_a_at.
[18] abbreviates: Hordeum vulgare, topical, barley leaves 6 h after spray application, median induction factor vs control, read-out: Expression value, 1.20 Contig2337_at.
The mark [19] stands for this setting: Hordeum vulgare, topical, barley leaves 6 h after spray application, median induction factor vs control, read-out: Expression value, 1.14 Contig2305_at.
[20] abbreviates: Hordeum vulgare, topical, barley leaves 6 h after spray application, median induction factor vs control, read-out: Expression value, 1.9 Contig15_a_at.
[21] abbreviates: Hordeum vulgare, topical, barley leaves 6 h after spray application, median induction factor vs control, read-out: Expression value, 5.1 Contig2990_at.
The mark [22] stands for this setting: Hordeum vulgare, topical, barley leaves 6 h after spray application, median induction factor vs control, read-out: Expression value, 2.3 Contig88_x_at.
[23] abbreviates: Hordeum vulgare, topical, barley leaves 6 h after spray application, median induction factor vs control, read-out: Expression value, 1.2 HI02E21u_s_at.
The mark [24] stands for this setting: Hordeum vulgare, topical, barley leaves 6 h after spray application, median induction factor vs control, read-out: Expression value, 1.17 Contig13413_at.
[25] abbreviates: Hordeum vulgare, topical, barley leaves 6 h after spray application, median induction factor vs control, read-out: Expression value, 3.1 Contig8905_at.
[26] abbreviates: Hordeum vulgare, topical, barley leaves 6 h after spray application, median induction factor vs control, read-out: Expression value, 1.5 Contig 4986_at.
The mark [27] stands for this setting: Hordeum vulgare, barley leaves 6 h after spray application, median induction factor vs control, read-out: Expression value, 1.10 Contig1736_at.

Turning to `O=C(NO)c1ccccc1O` [S7, Salicyl hydroxamate], the “Expression value, 2.1 Contig2088_s_at” value in [1] (setting [14]) is given as 4.79 x times. Besides, the “Expression value, 4.1 Contig2118_at” value in experiment [2] (setting [14]) is reported as 1.00 x times. Further, in experiment [3] (setting [14]), the “Expression value, 1.7 Contig6194_a_at” value amounted to 1.00 x times. The “Expression value, 1.20 Contig2337_at” value in experiment [4] (setting [14]) was 1.00 x times. The “Expression value, 1.14 Contig2305_at” value in experiment [5] (setting [14]) came out at 41.07 x times. The “Expression value, 1.9 Contig15_a_at” value in [6] (setting [14]) is 1.00 x times. Moreover, the “Expression value, 5.1 Contig2990_at” value in experiment [7] (setting [14]) was determined as 1.00 x times. In addition, the “Expression value, 2.3 Contig88_x_at” value in experiment [8] (setting [14]) is listed as 21.86 x times. The “Expression value, 1.2 HI02E21u_s_at” value in [9] (setting [14]) was 1.00 x times. The “Expression value, 1.17 Contig13413_at” value in experiment [10] (setting [14]) came to 1.00 x times. For the same molecule, the “Expression value, 3.1 Contig8905_at” value in [11] (setting [14]) is listed as 1.00 x times. Besides, the “Expression value, 1.5 Contig 4986_at” value in experiment [12] (setting [14]) came out at 1.00 x times. In [13] (setting [14]), the “Expression value, 1.10 Contig1736_at” value is on record as 1.00 x times.
For `CSC(=O)c1cccc2nnsc12` [S8, Acibenzolar-S-methyl], the fold induction in experiment [1] (setting [15]) was 7.36; in experiment [2] (setting [16]) it was 1; in experiment [3] (setting [17]), 1; in [4] (setting [18]) it was 1; in experiment [5] (setting [19]), 81.6; in experiment [6] (setting [20]), 1. Further, the fold induction in experiment [7] (setting [21]) is 1; in experiment [8] (setting [22]), 22.9; in experiment [9] (setting [23]), 1; in [10] (setting [24]) it was 2.17; in [11] (setting [25]), 1; in [12] (setting [26]), 1. Besides, in experiment [13] (setting [27]), the fold induction was 1.
For `O=C(O)c1cc(Cl)nc(Cl)c1` [S9], the fold induction at 150 g/ha in [1] (Hordeum vulgare, topical, 6 h, read-out: Expression value, 2.1 Contig2088_s_at) was found to be 2.36; in experiment [2] (Hordeum vulgare, topical, 6 h, read-out: Expression value, 4.1 Contig2118_at), 1; in [3] (Hordeum vulgare, topical, 6 h, read-out: Expression value, 1.7 Contig6194_a_at), 1; in [4] (Hordeum vulgare, topical, 6 h, read-out: Expression value, 1.20 Contig2337_at) it was 1; in experiment [5] (Hordeum vulgare, topical, 6 h, read-out: Expression value, 1.14 Contig2305_at), 12.6; in [6] (Hordeum vulgare, topical, 6 h, read-out: Expression value, 1.9 Contig15_a_at), 1. Also, the fold induction at 150 g/ha in experiment [7] (Hordeum vulgare, topical, 6 h, read-out: Expression value, 5.1 Contig2990_at) came out at 2.39; in experiment [8] (Hordeum vulgare, topical, 6 h, read-out: Expression value, 2.3 Contig88_x_at), 4.59; in experiment [9] (Hordeum vulgare, topical, 6 h, read-out: Expression value, 1.2 HI02E21u_s_at), 3.03; in experiment [10] (Hordeum vulgare, topical, 6 h, read-out: Expression value, 1.17 Contig13413_at), 1; in [11] (Hordeum vulgare, topical, 6 h, read-out: Expression value, 3.1 Contig8905_at) it was 2.53; in experiment [12] (Hordeum vulgare, topical, 6 h, read-out: Expression value, 1.5 Contig 4986_at) it was 1. Moreover, in [13] (Hordeum vulgare, 6 h, read-out: Expression value, 1.10 Contig1736_at), the fold induction at 150 g/ha is 1.
`O=C(O)c1cc(Cl)cc(Cl)c1O` [S10]: the fold induction turned out to be 2.41 in experiment [1] (setting [15]); 1 in [2] (setting [16]); 1 in [3] (setting [17]); 1 in [4] (setting [18]); 18.1 in experiment [5] (setting [19]); 1 in experiment [6] (setting [20]). In addition, the fold induction in [7] (setting [21]) amounted to 1; in [8] (setting [22]) it was 4.41; in experiment [9] (setting [23]), 4.66; in experiment [10] (setting [24]), 1; in experiment [11] (setting [25]) it was 1; in experiment [12] (setting [26]), 1. In experiment [13] (setting [27]), the fold induction was 1.
